In BindingDB's records for doi:10.1007/bf02246453 (University of Turku, 1996):
Counter-ions that a name gives are not always drawn. One block for each compound: values may come before it.

Columns and labels:
[1] = target: T1, 5-hydroxytryptamine receptor 2C (Rattus norvegicus, UniProt P08909)
T1 sequence (P08909 whole entry): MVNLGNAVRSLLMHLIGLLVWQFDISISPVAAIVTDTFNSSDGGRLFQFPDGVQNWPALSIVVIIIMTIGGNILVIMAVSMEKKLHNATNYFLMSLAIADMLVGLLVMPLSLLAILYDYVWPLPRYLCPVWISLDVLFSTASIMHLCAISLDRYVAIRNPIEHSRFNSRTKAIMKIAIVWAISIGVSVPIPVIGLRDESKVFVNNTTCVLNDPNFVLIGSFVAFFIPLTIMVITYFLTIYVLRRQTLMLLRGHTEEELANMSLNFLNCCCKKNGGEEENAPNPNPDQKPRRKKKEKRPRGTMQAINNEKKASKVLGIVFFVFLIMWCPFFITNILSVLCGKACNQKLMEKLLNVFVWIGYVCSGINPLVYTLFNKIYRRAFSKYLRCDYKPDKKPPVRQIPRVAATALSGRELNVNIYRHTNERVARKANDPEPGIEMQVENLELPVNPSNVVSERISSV

[2] = target: 5-hydroxytryptamine receptor 2A (Rattus norvegicus, UniProt P14842)
5-hydroxytryptamine receptor 2A, sequence (P14842 whole entry): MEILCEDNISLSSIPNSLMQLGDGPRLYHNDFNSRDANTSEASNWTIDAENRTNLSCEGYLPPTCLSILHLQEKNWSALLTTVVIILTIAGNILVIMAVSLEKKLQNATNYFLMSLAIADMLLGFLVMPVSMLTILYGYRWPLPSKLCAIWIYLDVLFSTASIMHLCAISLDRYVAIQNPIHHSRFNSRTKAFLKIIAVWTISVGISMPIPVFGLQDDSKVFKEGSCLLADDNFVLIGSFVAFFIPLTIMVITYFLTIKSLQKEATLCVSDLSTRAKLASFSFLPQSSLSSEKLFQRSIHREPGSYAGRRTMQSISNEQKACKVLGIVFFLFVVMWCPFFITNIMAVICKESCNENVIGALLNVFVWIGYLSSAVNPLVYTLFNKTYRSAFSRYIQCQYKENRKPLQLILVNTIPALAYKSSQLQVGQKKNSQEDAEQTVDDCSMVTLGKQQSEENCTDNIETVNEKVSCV

Compound: CN(C)CCC=C1c2ccccc2CCc2ccccc21
Ki [2]: 4.3 nM
Ki [1]: 4.3 nM

Compound: O=c1n(CCCN2CCN(c3cccc(Cl)c3)CC2)nc2ccccn12 [2-{3-[4-(3-chlorophenyl)piperazin-1-yl]propyl}[1,2,4]triazolo[4,3-a]pyridin-3(2H)-one]
Ki [1]: 193 nM

Compound: CN(C)CCCn1c2c(c3ccccc31)CCCCCC2 [CAS_5560-72-5]
Ki [1]: 206 nM

Compound: C#CCN(C)CCCOc1ccc(Cl)cc1Cl [US8633208, Clorgyline]
Ki [1]: 1000 nM

Now from value to compound:

Ki [1]: 94 nM
Compound: CN(C)CCCN1c2ccccc2CCc2ccccc21

Ki [1]: 269 nM
Compound: CN(C)CCCC1(c2ccc(F)cc2)OCc2cc(C#N)ccc21 (stereo unspecified) [CITALOPRAM HYDROBROMIDE]

Ki [1]: 244 nM
Compound: CNCCCN1c2ccccc2CCc2ccccc21 [Desmethylimipramine]

Ki [1]: 157 nM
Compound: NCC[C@H](Oc1ccc(C(F)(F)F)cc1)c1ccccc1 [NORFLUOXETINE]

Ki [1]: 8.5 nM
Compound: CNCCC=C1c2ccccc2CCc2ccccc21 [NORTRIPTYLINE]

Ki [1]: 1000 nM
Compound: CN(C)C/C=C(/c1ccc(Br)cc1)c1cccnc1 [cis-[3-(4-Bromo-phenyl)-3-pyridin-3-yl-allyl]-dimethyl-amine;HCl]
